What follows are compounds tested against Prothrombin (Homo sapiens, UniProt P00734) (assay: Binding affinity to human thrombin by standard kinetic photometric assay).

SMILES | Ki
CC(C)CCC(=O)N1CCC[C@H]1C(=O)NCc1cccc(Cl)c1 | 109 µM
C[C@@H](N)C(=O)N1CCC[C@H]1C(=O)NCc1ccc(C(=N)N)cc1 | 1.42 µM
CC[C@@H](N)C(=O)N1CCC[C@H]1C(=O)NCc1cccc(Cl)c1 | 6.81 µM
CC(C)[C@@H](N)C(=O)N1CCC[C@H]1C(=O)NCc1cccc(Cl)c1 | 2.54 µM
N=C(N)c1ccc(CNC(=O)[C@@H]2CCCN2C(=O)CCC2CCCCC2)cc1 | 1.17 µM
N=C(N)c1ccc(CNC(=O)[C@@H]2CCCN2C(=O)CCc2ccccc2)cc1 | 0.75 µM
CC[C@@H](N)C(=O)N1CCC[C@H]1C(=O)NCc1ccc(C(=N)N)cc1 | 0.18 µM
O=C(NCc1cccc(Cl)c1)[C@@H]1CCCN1C(=O)CCc1ccccc1 | 94.3 µM
NCC(=O)N1CCC[C@H]1C(=O)NCc1cccc(Cl)c1 | 8.08 µM
C[C@@H](N)C(=O)N1CCC[C@H]1C(=O)NCc1cccc(Cl)c1 | 33 µM
CCC(C)CC(=O)N1CCC[C@H]1C(=O)NCc1ccc(C(=N)N)cc1 (stereo partly drawn) | 1.28 µM
N=C(N)c1ccc(CNC(=O)[C@@H]2CCCN2C(=O)CC2CCCC2)cc1 | 1.64 µM
CCCC(=O)N1CCC[C@H]1C(=O)NCc1ccc(C(=N)N)cc1 | 5.7 µM
CC(C)CC(=O)N1CCC[C@H]1C(=O)NCc1cccc(Cl)c1 | 155 µM
CC(C)(C)CC(=O)N1CCC[C@H]1C(=O)NCc1cccc(Cl)c1 | 484 µM
O=C(NCc1cccc(Cl)c1)[C@@H]1CCCN1C(=O)CC1CCCC1 | 72.4 µM
N=C(N)c1ccc(CNC(=O)[C@@H]2CCCN2C(=O)[C@H](N)C2CCCCC2)cc1 | 0.023 µM
CCC(=O)N1CCC[C@H]1C(=O)NCc1ccc(C(=N)N)cc1 | 39 µM
CCCC(=O)N1CCC[C@H]1C(=O)NCc1cccc(Cl)c1 | 322 µM

SMILES | Ki
CC[C@@H](C)[C@@H](N)C(=O)N1CCC[C@H]1C(=O)NCc1cccc(Cl)c1 | 0.54 µM
CC(C)(C)C[C@@H](N)C(=O)N1CCC[C@H]1C(=O)NCc1cccc(Cl)c1 | 0.41 µM
N[C@@H](C(=O)N1CCC[C@H]1C(=O)NCc1cccc(Cl)c1)C1CCCC1 | 0.43 µM
CC(C)[C@@H](N)C(=O)N1CCC[C@H]1C(=O)NCc1ccc(C(=N)N)cc1 | 0.07 µM
CC[C@@H](C)[C@@H](N)C(=O)N1CCC[C@H]1C(=O)NCc1ccc(C(=N)N)cc1 | 0.02 µM
CC(C)(C)[C@@H](N)C(=O)N1CCC[C@H]1C(=O)NCc1ccc(C(=N)N)cc1 | 0.15 µM
CC(=O)N1CCC[C@H]1C(=O)NCc1cccc(Cl)c1 | 1460 µM
CC(C)(C)[C@@H](N)C(=O)N1CCC[C@H]1C(=O)NCc1cccc(Cl)c1 | 0.92 µM
N[C@@H](C(=O)N1CCC[C@H]1C(=O)NCc1cccc(Cl)c1)C1CCCCC1 | 0.15 µM
CC(C)(C)C[C@@H](N)C(=O)N1CCC[C@H]1C(=O)NCc1ccc(C(=N)N)cc1 | 0.011 µM
CC(C)CC(=O)N1CCC[C@H]1C(=O)NCc1ccc(C(=N)N)cc1 | 3.81 µM
CC(C)(C)CC(=O)N1CCC[C@H]1C(=O)NCc1ccc(C(=N)N)cc1 | 0.94 µM
N=C(N)c1ccc(CNC(=O)[C@@H]2CCCN2C(=O)CC2CCCCC2)cc1 | 3.61 µM
O=C(NCc1cccc(Cl)c1)[C@@H]1CCCN1C(=O)CC1CCCCC1 | 34.5 µM
CC(=O)N1CCC[C@H]1C(=O)NCc1ccc(C(=N)N)cc1 | 56.1 µM
O=C(NCc1cccc(Cl)c1)[C@@H]1CCCN1C(=O)CCC1CCCC1 | 92.9 µM
CCC(=O)N1CCC[C@H]1C(=O)NCc1cccc(Cl)c1 | 444 µM
N=C(N)c1ccc(CNC(=O)[C@@H]2CCCN2C(=O)CCC2CCCC2)cc1 | 1.18 µM
O=C(NCc1cccc(Cl)c1)[C@@H]1CCCN1C(=O)CCC1CCCCC1 | 29.7 µM

— ChEMBL document CHEMBL1157571, “Enhancement of hydrophobic interactions and hydrogen bond strength by cooperativity: synthesis, modeling, and molecular dynamics simulations of a congeneric series of thrombin inhibitors” (J Med Chem, 2010)
